Results reported in ChEMBL document CHEMBL4342450, “Antitumor Activity of Ohmyungsamycin A through the Regulation of the Skp2-p27 Axis and MCM4 in Human Colorectal Cancer Cells” (J Nat Prod, 2020).
pIC50: −log10 of the molar value. Calls of active or inactive are those of the source. The rule behind the calls is not given here. *1 amine or outer side, *2 acyl side, *3 side chain or, on linkers, in order; H or OH if unused. Where a SMILES comes first, the peptide text is derived from it. Bridges are numbered along the chain shown (N, C = ends). [ ]: non-standard residue; d: D form. Phe(3R-OH) = O=C([C@@H](N[*:1])[C@H](O[*:3])c1ccccc1)[*:2]; NMeTrp(4-OMe) = CN[C@@H](Cc1c[nH]c2cccc(OC)c12)C(=O)O; NMeT = CN[C@H](C(=O)O)[C@@H](C)O; NMeL = CN[C@@H](CC(C)C)C(=O)O; NMeV = CN[C@H](C(=O)O)C(C)C

Columns and labels:
HCT-116 [1] = assay: Induction of cell cycle arrest in human HCT116 cells assessed as accumulation at sub-G1 phase at 10 uM incubated for 24 hrs by propidium iodide staining based flow cytometry (reference value: 4.8%); assay type: functional
HCT-116 [2] = assay: Induction of cell cycle arrest in human HCT116 cells assessed as accumulation at G0/G1 phase incubated for 18 hrs by propidium iodide staining based flow cytometry; assay type: functional
HCT-116 [3] = assay: Downregulation of PEG10 gene expression in human HCT116 cells assessed as fold change at 15 uM incubated for 24 hrs by cDNA microarray analysis relative to control; assay type: functional
HCT-116 [4] = assay: Downregulation of MCM4 gene expression in human HCT116 cells assessed as fold change at 15 uM incubated for 24 hrs by cDNA microarray analysis relative to control; assay type: functional
HCT-116 [5] = assay: Induction of cell cycle arrest in human HCT116 cells assessed as accumulation at S phase at 5 uM incubated for 24 hrs by propidium iodide staining based flow cytometry (reference value: 21.2%); assay type: functional
HCT-116 [6] = assay: Induction of apoptosis in human HCT116 cells assessed as reduction in uncleaved full length caspase 8 level after 24 hrs by Western blot analysis; assay type: functional, cell-based
HCT-116 [7] = assay: Induction of apoptosis in human HCT116 cells assessed as reduction in Bcl-2 level at 5 to 20 uM after 24 hrs by Western blot analysis; assay type: functional, cell-based
HCT-116 [8] = assay: Induction of cell cycle arrest in human HCT116 cells assessed as accumulation at G0/G1 phase at 10 uM incubated for 24 hrs by propidium iodide staining based flow cytometry (reference value: 54.7%); assay type: functional
HCT-116 [9] = assay: Induction of cell cycle arrest in human HCT116 cells assessed as accumulation at S phase at 10 uM incubated for 18 hrs by propidium iodide staining based flow cytometry (reference value: 26.8%); assay type: functional
A549 = assay: Antiproliferative activity against human A549 cells after 72 hrs by sulforhodamine B assay; assay type: functional, cell-based; settings: A549, 72 h
HCT-116 [10] = assay: Induction of cell cycle arrest in human HCT116 cells assessed as accumulation at G0/G1 phase at 20 uM incubated for 24 hrs by propidium iodide staining based flow cytometry (reference value: 54.7%); assay type: functional
HCT-116 [11] = assay: Downregulation of HSPA1B gene expression in human HCT116 cells assessed as fold change at 15 uM incubated for 24 hrs by cDNA microarray analysis relative to control; assay type: functional
HCT-116 [12] = assay: Induction of cell cycle arrest in human HCT116 cells assessed as accumulation at G0/G1 phase at 5 uM incubated for 18 hrs by propidium iodide staining based flow cytometry (reference value: 43.3%); assay type: functional
SNU-638 = assay: Antiproliferative activity against human SNU638 cells after 72 hrs by sulforhodamine B assay; assay type: functional, cell-based; settings: SNU-638, 72 h
HCT-116 [13] = assay: Downregulation of MCM5 gene expression in human HCT116 cells assessed as fold change at 15 uM incubated for 24 hrs by cDNA microarray analysis relative to control; assay type: functional
HCT-116 [14] = assay: Induction of apoptosis in human HCT116 cells assessed as increase in cleaved caspase 8 level after 24 hrs by Western blot analysis; assay type: functional, cell-based
HCT-116 [15] = assay: Induction of cell cycle arrest in human HCT116 cells assessed as accumulation at G2/M phase at 5 uM incubated for 24 hrs by propidium iodide staining based flow cytometry (reference value: 15.7%); assay type: functional
Mus musculus [16] = assay: In vivo modulation of Skp2-p27 axis in tumor of BALB/c nude mouse xenografted with human HCT116 cells assessed as downregulation of Skp2 level at 5 to 10 m/kg, ip administered thrice a week for 3.5 weeks by Western blot analysis; assay type: functional, organism-based
HCT-116 [17] = assay: Downregulation of CYP24A1 gene expression in human HCT116 cells assessed as fold change at 15 uM incubated for 24 hrs by cDNA microarray analysis relative to control; assay type: functional
HCT-116 [18] = assay: Downregulation of KITLG gene expression in human HCT116 cells assessed as fold change at 15 uM incubated for 24 hrs by cDNA microarray analysis relative to control; assay type: functional
HCT-116 [19] = assay: Induction of apoptosis in human HCT116 cells assessed as reduction in survivin level at 5 to 20 uM after 24 hrs by Western blot analysis; assay type: functional, cell-based
Mus musculus [20] = assay: In vivo modulation of MCM4 in tumor of BALB/c nude mouse xenografted with human HCT116 cells assessed as downregulation of MCM4 level at 5 to 10 m/kg, ip administered thrice a week for 3.5 weeks by Western blot analysis; assay type: functional, organism-based
HCT-116 [21] = assay: Downregulation of MCM4 protein expression in human HCT116 cells at 5 to 20 uM after 24 hrs by Western blot analysis; assay type: functional, cell-based
HCT-116 [22] = assay: Downregulation of MCM4 mRNA expression in human HCT116 cells after 12 hrs by RT-PCR method; assay type: functional, cell-based
HCT-116 [23] = assay: Induction of cell cycle arrest in human HCT116 cells assessed as accumulation at G0/G1 phase at 10 uM incubated for 18 hrs by propidium iodide staining based flow cytometry (reference value: 43.3%); assay type: functional
Mus musculus [24] = assay: In vivo modulation of Skp2-p27 axis in tumor of BALB/c nude mouse xenografted with human HCT116 cells assessed as downregulation of Skp2 mRNA level at 5 to 10 m/kg, ip administered thrice a week for 3.5 weeks by RT-PCR method; assay type: functional, organism-based
SK-HEP1 = assay: Antiproliferative activity against human SKHEP1 cells after 72 hrs by sulforhodamine B assay; assay type: functional, cell-based; settings: SK-HEP1, 72 h
HCT-116 [25] = assay: Induction of apoptosis in human HCT116 cells assessed as increase in cleaved PARP level at 20 uM after 24 hrs by Western blot analysis; assay type: functional, cell-based
HCT-116 [26] = assay: Induction of apoptosis in human HCT116 cells assessed as reduction in uncleaved full length caspase 7 level after 24 hrs by Western blot analysis; assay type: functional, cell-based
HCT-116 [27] = assay: Induction of cell cycle arrest in human HCT116 cells assessed as accumulation at S phase at 5 uM incubated for 18 hrs by propidium iodide staining based flow cytometry (reference value: 26.8%); assay type: functional
Mus musculus [28] = assay: In vivo modulation of Skp2-p27 axis in tumor of BALB/c nude mouse xenografted with human HCT116 cells assessed as upregulation of p27 level at 5 to 10 m/kg, ip administered thrice a week for 3.5 weeks by Western blot analysis; assay type: functional, organism-based
MDA-MB-231 = assay: Antiproliferative activity against human MDA-MB-231 cells after 72 hrs by sulforhodamine B assay; assay type: functional, cell-based; settings: MDA-MB-231, 72 h
HCT-116 [29] = assay: Induction of apoptosis in human HCT116 cells assessed as increase in cleaved caspase 7 level after 24 hrs by Western blot analysis; assay type: functional, cell-based
HCT-116 [30] = assay: Decrease in cell cycle associated protein expression in human HCT116 cells assessed as reduction in cyclin E expression at 5 to 20 uM after 24 hrs by Western blot analysis; assay type: functional, cell-based
HCT-116 [31] = assay: Downregulation of DSCC1 gene expression in human HCT116 cells assessed as fold change at 15 uM incubated for 24 hrs by cDNA microarray analysis relative to control; assay type: functional
HCT-116 [32] = assay: Modulation of Skp2-p27 Axis in human HCT116 cells assessed as downregulation of Skp2 expression at 5 to 20 uM after 24 hrs by Western blot analysis; assay type: functional, cell-based

pIC50 (A549): 5.08
pIC50 (SNU-638): 5.03
pIC50 (SK-HEP1): 5.09
pIC50 (MDA-MB-231): 5.00
SMILES: CN[C@H](C(=O)N[C@H](C(=O)N[C@@H]1C(=O)N(C)[C@@H]([C@@H](C)O)C(=O)N[C@@H](C(C)C)C(=O)N(C)[C@@H](CC(C)C)C(=O)N[C@@H](C(C)C)C(=O)N(C)[C@@H](C(C)C)C(=O)N(C)[C@@H](Cc2c[nH]c3cccc(OC)c23)C(=O)N[C@@H](C(C)C)C(=O)N[C@@H]([C@H](O)c2ccccc2)C(=O)N[C@@H](C(C)C)C(=O)O[C@@H]1C)C(C)C)C(C)C (H-[NMeV]VT[NMeT]V[NMeL]V[NMeV][NMeTrp(4-OMe)]V[Phe(3R-OH)]V; ester 3-C)
Activity (HCT-116 [1]): 14.7%
Activity (HCT-116 [2]): Dose-dependent effect
fold change (FC) (HCT-116 [3]): 4.917
fold change (FC) (HCT-116 [4]): 6.074
Activity (HCT-116 [5]): 5.6%
Activity (HCT-116 [6]): Dose-dependent effect
Activity (HCT-116 [7]): Active
Activity (HCT-116 [8]): 62.7%
Activity (HCT-116 [9]): 26.6%
Activity (HCT-116 [10]): 30.9%
fold change (FC) (HCT-116 [11]): 4.531
Activity (HCT-116 [12]): 45.8%
fold change (FC) (HCT-116 [13]): 5.219
Activity (HCT-116 [14]): Dose-dependent effect
Activity (HCT-116 [15]): 12.5%
inhibition (Mus musculus [16]): Active
fold change (FC) (HCT-116 [17]): 18.5
fold change (FC) (HCT-116 [18]): 4.177
Activity (HCT-116 [19]): Active
inhibition (Mus musculus [20]): Active
inhibition (HCT-116 [21]): Active
inhibition (HCT-116 [22]): Dose-dependent effect
Activity (HCT-116 [23]): 51.4%
inhibition (Mus musculus [24]): Active
Activity (HCT-116 [25]): Active
Activity (HCT-116 [26]): Dose-dependent effect
Activity (HCT-116 [27]): 27.5%
Activity (Mus musculus [28]): Active
Activity (HCT-116 [29]): Dose-dependent effect
inhibition (HCT-116 [30]): Active
fold change (FC) (HCT-116 [31]): 4.856
inhibition (HCT-116 [32]): Active
